Experimental data taken from patent US7585846B2, “Compounds for delivering amino acids or peptides with antioxidant activity into mitochondria and use thereof” (University of Rochester, priority 2003, dated 2009).

What was measured:
spinal cord neurons = assay: Oxidative stress-induced apoptosis (condensed and fragmented nuclei, Hoechst staining); format: cell-based
Description: FIG. 3B is a control for FIG. 3A. FIG. 3C is a bar diagram summary of the percent of neurons with condensed fragmented nuclei after H2O2 treatment. The concentrations of H2O2 used are shown on the x-axis.
Central to the proposed therapeutic intervention is the belief that SCN undergo apoptosis and possibly necrosis under oxidative stress. […] Image pairs, obtained from H2O2-treated (FIG. 3A) and non-treated (FIG. 3B) SCN, are shown in both phase contrast and after Hoechst nuclear staining. Many of the neurons in FIG. 3A show condensed and fragmented nuclei (arrows) indicative of apoptotic cells. In contrast, control neurons in FIG. 3B show predominantly diffuse nuclear staining (arrows). […] This percentage increased to […] for 500 μM H2O2. […] These changes were concentration-dependent and increased by mtGSH depletion. […] In contrast, immunoreactivity to cytochrome C oxidase (COX), a marker in the inner mitochondrial membrane remains independent of the mitochondrial insults by H2O2 (FIG. 3E). The differential staining between Cyt C and COX affords a secondary method to assess whether a given neuron has undergone mitochondrial permeability transition (MPT).

Rat heart mitochondria [1] = assay: Mitochondrial membrane potential by safranine fluorescence under rotenone/t-BuOOH oxidative stress; format: biochemical; conditions: pretreatment 5 mM for 30 minutes; 5 μM rotenone and 100 μM t-BuOOH
Description: Mitochondrial membrane potential was measured by safranine. Safranine is a positively charged dye that accumulates in mitochondria on establishment of an electrical potential across the mitochondrial inner membrane. However, its fluorescence is quenched by its accumulation in mitochondria in response to mitochondrial membrane potential. Rat heart mitochondria (0.2 mg protein/200 μl) were transferred to a well containing 0.3 ml of 150 mM KCl, 5 mM Hepes, 15 μM safranine, 5 mM succinate buffer, 5 μM rotenone and 100 μM t-BuOOH. The mitochondria were placed in a multiplate reader. Fluorescence measurements were made with excitation and emission wavelengths of 485 and 585 nm respectively. Rotenone and t-BuOOH induced mitochondrial membrane potential resulting in a release of intramitochondrial safranine indicated by an increase in fluorescence signal.

[2] = test system: cultured neonatal rat ventricular myocytes; assay: H2O2-induced depolarization of mitochondrial membrane potential (TMRM fluorescence) in myocytes; format: cell-based; conditions: for onset of H2O2-induced depolarization and loss of TMRM fluorescence: pretreatment 50 or 100 μM for 30 minutes
Description: TMRM is a lipophilic cation that partitions selectively into the negatively charged mitochondria Neonatal cultured myocytes (6 days in culture) were loaded with 10 nM TMRM for 60 minutes at 37° C. The myocytes were pretreated with either 50 or 100 μM Mito GSH or 100 μM non-targeted GSH for 30 minutes and then washed to remove the antioxidants from the solution in which myocytes were suspended. As a control, myocytes were not pretreated with any drug. TMRM was excited at 555 nm and fluorescence emission was detected at 590 nm. Fluorescence images were taken every 2 minutes. At the arrow, myocytes were subjected to oxidative stress by adding 50 μM H2O2. Plots were normalized to baseline, and are shown as F/Fo, where F is the emitted fluorescence at any given time and Fo is the baseline fluorescence before addition of H2O2. […] The traces were drawn from the mean values of 7-10 experiments.
TMRM was used as an indicator of mitochondrial membrane potential. The myocytes were pretreated with 50 μM Mito GSH for 30 minutes and then washed to remove the antioxidant from the solution in which myocytes were suspended. In control, myocytes were not pretreated with any drug. TMRM was excited at 555 nm and fluorescence emission was detected at 590 nm. Fluorescence images were taken every 2 minutes to avoid photobleaching and phototoxicity. Myocytes were subjected to oxidative stress by adding 50 μM H2O2.

Rat heart mitochondria [3] = assay: Mitochondrial membrane potential by TPP+ sensitive electrode under rotenone/t-BuOOH oxidative stress; format: biochemical; conditions: pretreatment 5 mM at 4° C. for 30 minutes; 5 μM rotenone and 100 μM t-BuOOH; TPP+ signal
Description: Mitochondrial membrane potential was measured by a TPP+ (tetraphenyl phosphonium) sensitive electrode. Rat heart mitochondria (1 mg protein/100 μl) were transferred to a beaker (at the first arrow) containing 0.9 ml of 150 mM KCl, 5 mM Hepes, 6 μM TPP+ and 5 mM succinate buffer. […] At the second arrow, mitochondria were subjected to oxidative stress by adding 5 μM rotenone (Complex I inhibitor) and 100 μM tert-butylhydroperoxide (t-BuOOH) to the buffer.

[4] = test system: Male Sprague-Dawley rat hearts; conditions: 50 μM for 10 min prior to ischemia
Description: Male Sprague-Dawley rat hearts were retrograde (Langendorff) perfused with oxygenated Krebs Henseleit (KH) buffer in constant flow mode (12 mL/min/gram wet weight). Hearts were not electrically stimulated, and beat spontaneously at approximately 280 bpm. Left-ventricular pressure (LVP) was measured by a balloon inserted in the left ventricle, linked to a pressure transducer with digital recording at 500 Hz. […] Following an equilibration period of approximately 25 mm., global normothermic ischemia was imposed for 25 mm., followed by reperfusion for 30 mm as indicated by the arrows on the traces. For mNAC treatment, the drug was dissolved in KH buffer and infused via a port just above the aortic perfusion cannula, at a final concentration of 50 μM, for 10 min. prior to the onset of ischemia.
The ability of mitochondrially targeted N-acetylcysteine (mNAC) to improve post-ischemic recovery in rat heart was assessed. Male Sprague-Dawley rat hearts were retrograde (Langendorff) perfused with oxygenated Krebs Henseleit (KH) buffer in constant flow mode (12 mL/min/gram wet weight). Hearts were not electrically stimulated, and beat spontaneously at approximately 280 beats per minute. Left-ventricular pressure (LVP) was measured by a balloon inserted in the left ventricle, linked to a pressure transducer with digital recording at 500 Hz. […]

brain striatal neurons = conditions: pretreatment 100 μM; 100 μM NMDA; DCF fluorescence
Description: Intracellular reactive oxygen species (ROS) were measured by using the redox-sensitive dye, dichlorohydrofluorescein (H2DCFDA). […] Cultured striatal neurons (10 days in culture) were loaded with 50 nM H2DCFDA for 25 min. The neurons were excited at 488 nm and the image was acquired at 515 nm wavelength. ROS production was induced by treating the neurons with 100 μM NMDA. An increase in DCFDA fluorescence by NMDA treatment reflected an increased production of ROS or oxidative stress. […] Plots were normalized to baseline, and are shown as F/Fo, where F is the emitted fluorescence at any given time and Fo is the baseline fluorescence before addition of NMDA. […] The traces were drawn from the mean values of 3 experiments.

For `C=CC(O)CC(=O)O` (stereo not shown) [3-HP, 3-hydroxy-4-pentenoate], the “cells with condensed and fragmented nuclei” value (spinal cord neurons; mtGSH depletion by 3-HP prior to 250 μM H2O2 treatment) was 70%.

With `CC(=O)N[C@@H](CSC(C)=O)C(=O)OCC[N+](C)(C)C` [N,S-acetyl cysteine choline ester, S,N-acetyl-L-cysteine choline ester] the “release of intramitochondrial safranine (depolarization of mitochondrial membrane potential)” value (Rat heart mitochondria [1]) was “diminished the release of intramitochondrial safaranine”.

`OO` [H2O2] was tested, and the “neurons with condensed and fragmented nuclei” value (spinal cord neurons; 250 μM H2O2) was about 42%.

For `N[C@@H](CCC(=O)N[C@@H](CS)C(=O)NCC(=O)O)C(=O)O` [GSH, glutathione, reference compound], the “time for onset of H2O2-induced depolarization (versus control)” value (shortened to “time for onset … (versus control)”) ([2]; pretreatment 100 μM) was “did not significantly increase the time for onset of H2O2-induced depolarization”.

`CC(=O)N[C@@H](CS)C(=O)OCC[N+](C)(C)C` [mNAC, N-acetyl-L-cysteine choline ester] was tested, and the “oxidative stress-induced depolarization of mitochondrial membrane potential” value (“oxidative stress-induced depolarization” for short) (Rat heart mitochondria [3]) was “prevented the oxidative stress-induced depolarization significantly”, the “onset of H2O2-induced depolarization and loss of TMRM fluorescence” value ([2]; 50 μM H2O2) was “delayed onset of H2O2-induced depolarization and loss of fluorescence” and the “onset of ischemic contracture” value [4] was “appeared to delay the onset of ischemic contracture”. For the same compound, the “overall recovery of LV developed pressure (systolic minus diastolic)” value ([4]; 25 min global ischemia, 30 min reperfusion, control 4.1%) was 15.7%.

With `C[N+](C)(C)CCOC(=O)CNC(=O)[C@H](CS)NC(=O)CC[C@H](N)C(=O)O.[Cl-]` [Mito GSH, Glutathione choline ester chloride] the “oxidative stress-induced depolarization” value (Rat heart mitochondria [3]) was “prevented the oxidative stress-induced depolarization significantly”, the “time for onset … (versus control)” value ([2]; pretreatment 50 μM) was “significantly enhanced the time for onset of H2O2-induced depolarization” and the “time to which TMRM fluorescence persisted after H2O2 treatment” value ([2]; pretreatment 50 μM for 30 minutes, 50 μM H2O2, control invisible at 32 minutes) was 50 min. The “time for onset … (versus control)” value ([2]; pretreatment 100 μM) was “significantly enhanced the time for onset of H2O2-induced depolarization”, the “Time for onset of H2O2-induced depolarization” value ([2]; pretreatment 100 μM, control 25±3.2 min) was 53 ± 3.6 min and the “onset of H2O2-induced depolarization and loss of TMRM fluorescence” value ([2]; 50 μM H2O2) was “delayed onset of H2O2-induced depolarization and loss of TMRM fluorescence”. For the same compound, the “NMDA-induced increase in ROS production” value (brain striatal neurons) was “prevented NMDA-induced increase in ROS production”.

`C[N+](C)(C)CCOC(=O)[C@@H](N)CS.[Cl-]` [cysteine choline ester, [2-(2-Amino-3-mercapto-L-propionyloxy)-ethyl]-trimethyl-ammonium chloride] was tested, and the “oxidative stress-induced depolarization” value (Rat heart mitochondria [3]) was “prevented the oxidative stress-induced depolarization significantly”.
